Test [1] has as its system CD-HFD-fed Flox and LAKO mice. In words: Caspase-6 inhibitor Z-VEID-FMK in CD-HFD-fed Flox and LAKO mice. The test is classed as in vivo. The source says:
FIG. 4A. […] Scale bar=50 μm. FIG. 4B. […] FIG. 4F. […] Scale bar=100 μm. FIG. 4G. […] Scale bar=50 μm.
FIG. 6A. […] FIG. 6B. […] FIG. 6C. […] FIG. 6D. […] FIG. 6E. […] FIG. 6F.
FIGS. 14A-14G. […] FIG. 14A. […] Scale bar=100 μm.

Test [2] has as its system cleaved caspase-3 and -7 in primary hepatocytes. In words: Caspase cascade after CHX plus TNFα and medium change in primary hepatocytes (IB). The test is classed as cell-based, mice. To be noted: 25 μM pretreatment 1 hr, CHX and TNFα 2 hrs, medium changed for 4 hrs. The procedure:
FIGS. 16A-16D. Caspase-6 sustain activation of caspase cascade to induce apoptosis. FIG. 16A. HepG2 cells transfected with scrambled RNA or caspase-6 siRNA were treated with vehicle or 300 μg/ml CHX and 50 ng/ml TNFα for 20 hrs. Viability was measured by CCK-8 assay. Data are shown as mean±SD. *, P<0.05, two-way ANOVA. FIG. 16B. HepG2 cells transfected with scrambled RNA or Caspase-6 siRNA were treated with vehicle or 30 μg/ml CHX and 50 ng/ml TNFα for 2 hrs. Medium was changed to remove treatment. Cells were harvested at indicated time points. Cell lysates were subject to IB analysis. FIG. 16C. Isolated primary hepatocytes were pretreated with 25 μM Z-VEID-FMK (VEID) (SEQ ID NO: 71) for 1 hr and treated with 30 μg/ml CHX and 50 ng/ml TNFα for 2 hrs. Medium was changed to remove treatment for 4 hrs. Cell lysates were subject to IB analysis. FIG. 16D. Proposed model for roles of AMPK/caspase-6 axis in the regulation of NASH-associated liver damage. […]
Western blot was performed as previously described(11). […] Supernatants were collected and analyzed with BCA (Thermo Scientific) to quantify protein content. […] Individual proteins were detected with specific antibodies and visualized on film using horseradish peroxidase-conjugated secondary antibodies (Fisher Scientific) and SuperSignal West Pico PLUS Chemilunminescent Substrate (Thermo Scientific).

Test [3] deals with procaspase-6 cleavage in primary hepatocytes. In words: Procaspase-6 cleavage induced by TNFα and CHX in primary hepatocytes (IB). The test is classed as cell-based, mice. To be noted: 10 μM pretreatment 1 hr, then 30 μg/ml CHX and 50 ng/ml TNFα 2 hrs. From the text: FIGS. 5A-5K. AMPK phosphorylates caspase-6 to inhibit its cleavage and activation. FIG. 5A. […] IB analysis of cell lysates. n=3. Mean±SD. *, P<0.05, two-way ANOVA. FIG. 5B. […] Cell lysates were subject to caspase-6 activity assay. Mean±SD. *, P<0.05. FIG. 5C. Caspase-6 Ser^257 locates within AMPK substrate motif. FIG. 5C. discloses SEQ ID NOS 57-63, respectively, in order of appearance. FIG. 5D. In vitro kinase assay using recombinant caspase-6, and recombinant AMPKα1β1γ1 or AMPKα2β1γ1 active kinase. FIG. 5E. Alignment of caspase-6 sequence. FIG. 5E. discloses SEQ ID NOS 64-67, respectively, in order of appearance. FIG. 5F. HEK293T cells overexpressing caspase-6-myc WT, S^257A, S^257D or S^257E mutant were treated with 10 μg/ml CHX and 25 ng/ml TNFα for 2 hrs. IB analysis of cell lysates. FIGS. 5G-5J. C57BL/6J mice were fed CD-HFD for 6 weeks, followed by intraperitoneally injection of 25 mg/kg A-769662 or vehicle daily for 2 weeks while continuous CD-HI-D. Mice were sacrificed 6 hrs after last injection. FIG. 5G. IB analysis of liver lysates. n=5. FIG. 5H. Liver lysates were subject to caspase-6 activity assay. n=7. FIG. 5I. Liver sections stained as indicated therein (aCasp6 and DAPI); in the merged image sections, the different stains correspond to the grayscale shades as indicated in the single stained images to the left. Scale bar=50 μm. […] Quantification of aCasp6 staining per field in FIG. 5I. n=7. […]

[4] abbreviates: both Flox and LAKO mice, 5 mg/kg i.p. every other day for two weeks.

*: point of attachment. Cbz = O=C(OCc1ccccc1)*; CH2F = FC*

As to Z-VEID-FMK (Cbz-VEID-CH2F), the “difference in liver damage between Flox and LAKO mice” value in test [1] (5 mg/kg i.p. every other day for two weeks) is “abrogated”. For the same compound, the “cytosolic cytochrome c (liver fractions, IB)” value in test [1] (both Flox and LAKO mice, 5 mg/kg i.p. every other day for 2 weeks) is “decreased”. Also, in test [1] (setting [4]), the “liver fibrosis (Sirius red fibrosis area, liver hydroxyproline)” value is “reduced”; the “number of apoptotic hepatocytes (TUNEL)” value is given as “significantly reduced”; the “serum ALT activity” value is “decreased”. In addition, the “cleaved caspase-3 and -7” value in test [2] is “significant decrease”.

`COC[C@@H]1CCCN1S(=O)(=O)c1ccc2c(c1)C(=O)C(=O)N2` [caspase-3 and -7 inhibitor]: the “procaspase-6 cleavage caused by TNFα and CHX” value in test [3] is on record as “largely attenuated”.
